Test results as given in patent US20230072683A1, “PYRIDO-PYRIMIDIN DERIVATIVES AND PHARMACEUTICAL COMPOSITION, FOR USE IN PREVENTING OR TREATING PI3 KINASE RELATED DISEASES, COMPRISING SAME AS ACTIVE INGREDIENT” (BORYUNG PHARMACEUTICAL CO., LTD, priority 2019, published 2023).
Read-outs that look alike come from different tables or passages of the source. Values belong to the compound of their own block, whether it stands above or below them.

Legend:
[1] = target: PI3K-δ (PI3K(p1108/p857) (h)) (Homo sapiens, UniProt O00329); test: Evaluation of inhibitory activity against PI3K-δ (HTRF kinase assay); format: biochemical; conditions: for inhibition at 0.01 µM: compound concentration 0.01 μM, read-out: EXP_VALUE(% Inhibition) PI3K-δ 0.01 μM; for inhibition at 0.1 µM: read-out: EXP_VALUE(% Inhibition) PI3K-δ 0.1 μM
Description: <Experimental Example 1> Evaluation of Inhibitory Activity Properties Against PI3K-δ
The following experiments were performed to verify the inhibitory activity against PI3K-δ with regard to each of the compounds of Examples 1 to 441 according to the present invention.
PI3K(p1108/p857) (h) was incubated in assay buffer comprising 10 μM phosphatidylinositol-4,5-bisphosphate and Mg/ATP (at a concentration as required). The reaction was initiated by the addition of a Mg/ATP mixture, and after incubation for 30 minutes at room temperature, a stop solution comprising EDTA and phosphatidylinositol-3,4,5-triphosphate was added to stop the reaction and carry out biotinylation.
A detection buffer comprising Eu (europium)-labelled anti-GST monoclonal antibody, GST-tagged GRP1 PH domain and streptavidin-allophycocyanin was added. A plate was read in a time-resolved fluorescence mode and a homogeneous time-resolved fluorescence (HTRF) signal was determined according to HTRF=10000×(Em 665 nm/Em 620 nm).

DNA-PK(h) = DNA-PK(h) (Homo sapiens, UniProt P78527); test: Evaluation of inhibitory activity against DNA-PK (HTRF kinase assay, GST-cMyc-p53 substrate); format: biochemical; conditions: for inhibition at 0.01 µM: compound concentration 0.01 μM, read-out: EXP_VALUE(% Inhibition) DNA-PK(h) 0.01 μM; for inhibition at 0.1 µM: read-out: EXP_VALUE(% Inhibition) DNA-PK(h) 0.1 μM
Description: <Experimental Example 2> Evaluation of Inhibitory Activity Properties Against DNA-PK
The following experiments were performed to verify the inhibitory activity against DNA-PK with regard to each of the compounds of Examples 1 to 441 according to the present invention.
DNA-PK(h) was subjected to an isothermal treatment in an assay buffer comprising […] GST-cMyc-p53 and Mg/ATP (at a concentration as required). The reaction was initiated by the addition of a Mg/ATP mixture, and after incubation for 30 minutes at room temperature, a stop solution comprising EDTA was added to stop the reaction. A detection buffer comprising d2-labelled anti-GST monoclonal antibody and Europium-labelled anti-phospho Ser15 antibody for phosphorylated p53 was added. A plate was read in a time-resolved fluorescence mode and a homogeneous time-resolved fluorescence (HTRF) signal was determined according to HTRF=10000×(Em 665 nm/Em 620 nm).

PI3K-δ (PI3K(p1108/p857) (h)), sequence (O00329 whole entry): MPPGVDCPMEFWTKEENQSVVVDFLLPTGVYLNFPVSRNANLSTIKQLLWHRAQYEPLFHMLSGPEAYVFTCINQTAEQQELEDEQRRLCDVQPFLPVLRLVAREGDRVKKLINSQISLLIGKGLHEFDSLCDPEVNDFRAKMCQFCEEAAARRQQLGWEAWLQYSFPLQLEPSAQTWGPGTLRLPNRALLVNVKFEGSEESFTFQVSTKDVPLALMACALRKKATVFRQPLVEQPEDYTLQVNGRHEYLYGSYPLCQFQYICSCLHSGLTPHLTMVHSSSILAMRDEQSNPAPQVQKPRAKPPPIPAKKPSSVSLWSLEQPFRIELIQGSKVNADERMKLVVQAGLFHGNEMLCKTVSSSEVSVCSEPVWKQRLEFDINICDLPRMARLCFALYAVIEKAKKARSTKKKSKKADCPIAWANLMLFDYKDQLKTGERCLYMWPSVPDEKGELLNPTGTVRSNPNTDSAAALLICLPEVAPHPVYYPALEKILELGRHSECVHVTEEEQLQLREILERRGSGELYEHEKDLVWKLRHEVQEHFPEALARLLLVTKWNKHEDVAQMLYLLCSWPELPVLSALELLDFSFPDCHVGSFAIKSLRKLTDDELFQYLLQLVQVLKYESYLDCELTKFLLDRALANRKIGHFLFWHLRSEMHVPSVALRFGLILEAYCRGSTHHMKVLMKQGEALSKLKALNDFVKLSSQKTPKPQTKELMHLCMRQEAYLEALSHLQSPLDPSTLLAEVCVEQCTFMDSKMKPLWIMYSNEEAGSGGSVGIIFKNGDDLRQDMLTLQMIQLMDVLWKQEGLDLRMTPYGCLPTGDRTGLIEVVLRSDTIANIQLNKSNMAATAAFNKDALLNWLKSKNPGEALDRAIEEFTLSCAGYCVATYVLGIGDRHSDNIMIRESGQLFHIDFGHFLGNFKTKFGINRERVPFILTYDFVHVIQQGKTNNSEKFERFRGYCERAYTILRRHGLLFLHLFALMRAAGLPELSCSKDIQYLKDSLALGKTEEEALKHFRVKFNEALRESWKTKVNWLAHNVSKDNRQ
PI3K-δ (PI3K(p1108/p857) (h)), sequence (P27986 whole entry partner): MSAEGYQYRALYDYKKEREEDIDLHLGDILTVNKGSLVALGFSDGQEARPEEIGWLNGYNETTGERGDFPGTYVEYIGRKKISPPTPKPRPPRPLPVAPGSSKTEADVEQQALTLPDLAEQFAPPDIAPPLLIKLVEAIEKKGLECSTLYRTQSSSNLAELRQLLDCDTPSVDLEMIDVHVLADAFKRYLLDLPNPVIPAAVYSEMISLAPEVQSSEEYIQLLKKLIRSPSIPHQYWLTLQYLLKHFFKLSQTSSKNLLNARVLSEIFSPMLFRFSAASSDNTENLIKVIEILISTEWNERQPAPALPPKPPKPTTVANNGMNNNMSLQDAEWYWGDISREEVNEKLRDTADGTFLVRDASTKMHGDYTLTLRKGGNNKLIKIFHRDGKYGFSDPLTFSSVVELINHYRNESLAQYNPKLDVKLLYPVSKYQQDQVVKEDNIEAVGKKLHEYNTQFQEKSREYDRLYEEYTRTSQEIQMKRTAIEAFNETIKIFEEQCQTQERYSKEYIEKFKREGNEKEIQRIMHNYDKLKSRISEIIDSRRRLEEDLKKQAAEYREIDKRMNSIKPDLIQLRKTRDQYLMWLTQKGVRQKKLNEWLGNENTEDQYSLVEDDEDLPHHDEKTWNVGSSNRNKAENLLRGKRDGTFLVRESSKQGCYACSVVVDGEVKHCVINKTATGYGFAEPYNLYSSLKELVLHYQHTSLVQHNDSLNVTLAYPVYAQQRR

Compound: C[C@H](Nc1ncnc2[nH]ccc(=O)c12)c1c(Cl)c2cccc(-c3ccc4c(c3)OCO4)c2c(=O)n1-c1ccccc1 [Example 60, (S)-4-((1-(8-(benzo[d][1,3]dioxol-5-yl)-4-chloro-1-oxo-2-phenyl-1,2-dihydroisoquinolin-3-yl)ethyl)amino)pyrido[2,3-d]pyrimidin-5(8H)-one]
inhibition at 0.01 µM [1]: 94%
inhibition at 0.01 µM (DNA-PK(h)): 74%

Compound: C[C@H](Nc1ncnc2[nH]ccc(=O)c12)c1c(Cl)c2cccc(-c3ccc(S(C)(=O)=O)cc3)c2c(=O)n1-c1ccccc1 [Example 165, (S)-4-((1-(4-chloro-8-(4-(methylsulfonyl)phenyl)-1-oxo-2-phenyl-1,2-dihydroisoquinolin-3-yl)ethyl)amino)pyrido[2,3-d]pyrimidin-5(8H)-one]
inhibition at 0.01 µM [1]: 96%
inhibition at 0.01 µM (DNA-PK(h)): 91%

Compound: Cc1ccc(Oc2cccc3c(Cl)c([C@H](C)Nc4ncnc5[nH]ccc(=O)c45)n(-c4ccccc4)c(=O)c23)cc1 [Example 367, (S)-4-((1-(4-chloro-1-oxo-2-phenyl-8-(p-tolyloxy)-1,2-dihydroisoquinolin-3-yl)ethyl)amino)pyrido[2,3-d]pyrimidin-5(8H)-one]
inhibition at 0.01 µM [1]: 51%
inhibition at 0.1 µM ([1]; compound concentration 0.1 μM): 93%
inhibition at 0.01 µM (DNA-PK(h)): 21%
inhibition at 0.1 µM (DNA-PK(h); compound concentration 0.1 μM): 67%

Compound: Cc1ncc(-c2cccc3c(Cl)c([C@H](C)Nc4ncnc5[nH]ccc(=O)c45)n(-c4ccccc4)c(=O)c23)cn1 [Example 136, (S)-4-((1-(4-chloro-8-(2-methylpyrimidin-5-yl)-1-oxo-2-phenyl-1,2-dihydroisoquinolin-3-yl)ethyl)amino)pyrido[2,3-d]pyrimidin-5(8H)-one]
inhibition at 0.01 µM [1]: 83%
inhibition at 0.1 µM ([1]; compound concentration 0.1 μM): 93%
inhibition at 0.01 µM (DNA-PK(h)): 75%
inhibition at 0.1 µM (DNA-PK(h); compound concentration 0.1 μM): 97%

Compound: C[C@H](Nc1ncnc2[nH]ccc(=O)c12)c1c(Cl)c2cccc(-c3ccc(-c4ccccc4)nc3)c2c(=O)n1-c1ccccc1 [Example 115, (S)-4-((1-(4-chloro-1-oxo-2-phenyl-8-(6-phenylpyridin-3-yl)-1,2-dihydroisoquinolin-3-yl)ethyl)amino)pyrido[2,3-d]pyrimidin-5(8H)-one]
inhibition at 0.01 µM [1]: 78%
inhibition at 0.1 µM ([1]; compound concentration 0.1 μM): 96%
inhibition at 0.01 µM (DNA-PK(h)): 15%
inhibition at 0.1 µM (DNA-PK(h); compound concentration 0.1 μM): 72%

Compound: C[C@H](Nc1ncnc2[nH]ccc(=O)c12)c1c(Cl)c2cccc(SC(C)(C)C)c2c(=O)n1-c1ccccc1 [Example 426, (S)-4-((1-(8-(tert-butylthio)-4-chloro-1-oxo-2-phenyl-1,2-dihydroisoquinolin-3-yl)ethyl)amino)pyrido[2,3-d]pyrimidin-5(8H)-one]
inhibition at 0.1 µM ([1]; compound at 0.1 μM): 12%
inhibition at 0.1 µM (DNA-PK(h); compound at 0.1 μM): 8%

Compound: C[C@H](Nc1ncnc2[nH]ccc(=O)c12)c1c(Cl)c2cccc(Nc3ccccc3)c2c(=O)n1-c1ccccc1 [Example 343, (S)-4-((1-(4-chloro-1-oxo-2-phenyl-8-(phenylamino)-1,2-dihydroisoquinolin-3-yl)ethyl)amino)pyrido[2,3-d]pyrimidin-5(8H)-one]
inhibition at 0.01 µM [1]: 8%
inhibition at 0.01 µM (DNA-PK(h)): -1%

Compound: C[C@H](Nc1ncnc2[nH]ccc(=O)c12)c1cc2cccc(-c3cnn(C)c3)c2c(=O)n1-c1ccccc1 [Example 15, (S)-4-((1-(8-(1-methyl-1H-pyrazol-4-yl)-1-oxo-2-phenyl-1,2-dihydroisoquinolin-3-yl)ethyl)amino)pyrido[2,3-d]pyrimidin-5(8H)-one]
inhibition at 0.01 µM [1]: 109%
inhibition at 0.1 µM ([1]; compound concentration 0.1 μM): 108%
inhibition at 0.01 µM (DNA-PK(h)): 24%
inhibition at 0.1 µM (DNA-PK(h); compound concentration 0.1 μM): 37%

Compound: C[C@H](Nc1ncnc2[nH]ccc(=O)c12)c1c(Cl)c2cccc(-c3cncc(S(C)(=O)=O)c3)c2c(=O)n1-c1ccccc1 [Example 218, (S)-4-((1-(4-chloro-8-(5-(methylsulfonyl)pyridin-3-yl)-1-oxo-2-phenyl-1,2-dihydroisoquinolin-3-yl)ethyl)amino)pyrido[2,3-d]pyrimidin-5(8H)-one]
inhibition at 0.01 µM [1]: 99%
inhibition at 0.01 µM (DNA-PK(h)): 85%

Compound: C[C@H](Nc1ncnc2[nH]ccc(=O)c12)c1c(Cl)c2cccc(-c3cnc(-c4cccs4)nc3)c2c(=O)n1-c1ccccc1 [Example 377, (S)-4-((1-(4-chloro-1-oxo-2-phenyl-8-(2-(thiophen-2-yl)pyrimidin-5-yl)-1,2-dihydroisoquinolin-3-yl)ethyl)amino)pyrido[2,3-d]pyrimidin-5(8H)-one]
inhibition at 0.1 µM ([1]; compound at 0.1 μM): 59%
inhibition at 0.1 µM (DNA-PK(h); compound at 0.1 μM): 30%

Compound: C[C@H](Nc1ncnc2[nH]ccc(=O)c12)c1c(Cl)c2cccc(-c3cc(O)c(O)c(F)c3)c2c(=O)n1-c1ccccc1 [Example 36, (S)-4-((1-(4-chloro-8-(3-fluoro-4,5-dihydroxyphenyl)-1-oxo-2-phenyl-1,2-dihydroisoquinolin-3-yl)ethyl)amino)pyrido[2,3-d]pyrimidin-5(8H)-one]
inhibition at 0.01 µM [1]: 74%
inhibition at 0.01 µM (DNA-PK(h)): 34%

More lines, now with the values ahead:

inhibition at 0.01 µM [1]: 89%
inhibition at 0.1 µM ([1]; compound concentration 0.1 μM): 110%
inhibition at 0.01 µM (DNA-PK(h)): 58%
inhibition at 0.1 µM (DNA-PK(h); compound concentration 0.1 μM): 90%
Compound: C[C@H](Nc1ncnc2[nH]ccc(=O)c12)c1c(C2CC2)c2cccc(Cl)c2c(=O)n1-c1ccccc1 [Example 65, (S)-4-((1-(8-chloro-4-cyclopropyl-1-oxo-2-phenyl-1,2-dihydroisoquinolin-3-yl)ethyl)amino)pyrido[2,3-d]pyrimidin-5(8H)-one]

inhibition at 0.01 µM [1]: 27%
inhibition at 0.1 µM ([1]; compound concentration 0.1 μM): 70%
inhibition at 0.01 µM (DNA-PK(h)): 13%
inhibition at 0.1 µM (DNA-PK(h); compound concentration 0.1 μM): 63%
Compound: C[C@H](Nc1ncnc2[nH]ccc(=O)c12)c1c(Cl)c2cccc(N3CCC[C@H]3C(N)=O)c2c(=O)n1-c1ccccc1 [Example 337, (S)-1-(4-chloro-1-oxo-3-((S)-1-((5-oxo-5,8-dihydropyrido[2,3-d]pyrimidin-4-yl)amino)ethyl)-2-phenyl-1,2-dihydroisoquinolin-8-yl) pyrrolidine-2-carboxamide]

inhibition at 0.01 µM [1]: 73%
inhibition at 0.1 µM ([1]; compound concentration 0.1 μM): 95%
inhibition at 0.01 µM (DNA-PK(h)): 56%
inhibition at 0.1 µM (DNA-PK(h); compound concentration 0.1 μM): 91%
Compound: C[C@H](Nc1ncnc2[nH]ccc(=O)c12)c1c(Cl)c2cccc(-c3ccc(C=O)cc3)c2c(=O)n1-c1ccccc1 [Example 85, (S)-4-(4-chloro-1-oxo-3-(1-((5-oxo-5,8-dihydropyrido[2,3-d]pyrimidin-4-yl)amino)ethyl)-2-phenyl-1,2-dihydroisoquinolin-8-yl)benzaldehyde]

inhibition at 0.01 µM [1]: 91%
inhibition at 0.01 µM (DNA-PK(h)): 61%
Compound: COc1ncc(-c2cccc3c(Cl)c([C@H](C)Nc4ncnc5[nH]ccc(=O)c45)n(-c4ccccc4)c(=O)c23)cc1C [Example 197, (S)-4-((1-(4-chloro-8-(6-methoxy-5-methylpyridin-3-yl)-1-oxo-2-phenyl-1,2-dihydroisoquinolin-3-yl)ethyl)amino)pyrido[2,3-d]pyrimidin-5(8H)-one]

inhibition at 0.01 µM [1]: 37%
inhibition at 0.01 µM (DNA-PK(h)): -1%
Compound: C[C@H](Nc1ncnc2[nH]ccc(=O)c12)c1c(Cl)c2cccc(C3OCC(C)(C)CO3)c2c(=O)n1-c1ccccc1 [Example 358, (S)-4-((1-(4-chloro-8-(5,5-dimethyl-1,3-dioxan-2-yl)-1-oxo-2-phenyl-1,2-dihydroisoquinolin-3-yl)ethyl)amino)pyrido[2,3-d]pyrimidin-5(8H)-one]

inhibition at 0.01 µM [1]: 81%
inhibition at 0.1 µM ([1]; compound concentration 0.1 μM): 91%
inhibition at 0.01 µM (DNA-PK(h)): 54%
inhibition at 0.1 µM (DNA-PK(h); compound concentration 0.1 μM): 92%
Compound: Cc1cc(F)ccc1-c1cccc2c(Cl)c([C@H](C)Nc3ncnc4[nH]ccc(=O)c34)n(-c3ccccc3)c(=O)c12 [Example 131, (S)-4-((1-(4-chloro-8-(4-fluoro-2-methylphenyl)-1-oxo-2-phenyl-1,2-dihydroisoquinolin-3-yl)ethyl)amino)pyrido[2,3-d]pyrimidin-5(8H)-one]

inhibition at 0.01 µM [1]: 40%
inhibition at 0.01 µM (DNA-PK(h)): 67%
Compound: COc1cc(OC)cc(-c2cccc3c(Cl)c([C@H](C)Nc4ncnc5[nH]ccc(=O)c45)n(-c4ccccc4)c(=O)c23)c1 [Example 169, (S)-4-((1-(4-chloro-8-(3,5-dimethoxyphenyl)-1-oxo-2-phenyl-1,2-dihydroisoquinolin-3-yl)ethyl)amino)pyrido[2,3-d]pyrimidin-5(8H)-one]

inhibition at 0.01 µM (DNA-PK(h)): 48%
inhibition at 0.1 µM (DNA-PK(h); compound concentration 0.1 μM): 73%
Compound: C[C@H](Nc1ncnc2[nH]ccc(=O)c12)c1c(Cl)c2cccc(-c3ccc(C(F)(F)F)cc3)c2c(=O)n1-c1ccccc1 [Example 68, (S)-4-((1-(4-chloro-1-oxo-2-phenyl-8-(4-(trifluoromethyl)phenyl)-1,2-dihydroisoquinolin-3-yl)ethyl)amino)pyrido[2,3-d]pyrimidin-5(8H)-one]
